Laboratory results reported in patent US9828393B2, “Silylalkyloxyaryl compounds and methods for treating cancer” (THE REGENTS OF THE UNIVERSITY OF COLORADO, a body corporate, priority 2013, dated 2017).
Read-outs that look alike come from different tables or passages of the source.

Tests used:
MOLT-4 = experiment: NCI-60 cell line screen (SRB), MOLT-4; type: cell-based, human
Method: (§1) Drug sensitivity data are provided as GI50s (concentrations required to inhibit growth by 50%). The first row of the text file identifies cell lines, separated by tabs. Subsequent rows contain compound number, compound name, and GI50 for each cell line, each separated by a tab. […] For a typical screening experiment, cells are inoculated into 96 well microtiter plates in 100 μL at plating densities ranging from 5,000 to 40,000 cells/well depending on the doubling time of individual cell lines. After cell inoculation, the microtiter plates are incubated at 37° C., 5% CO2, 95% air and 100% relative humidity for 24 h prior to addition of experimental drugs. After 24 h, two plates of each cell line are fixed in situ with TCA, to represent a measurement of the cell population for each cell line at the time of drug addition (Tz). Experimental drugs are solubilized in dimethyl sulfoxide at 400-fold the desired final maximum test concentration and stored frozen prior to use. At the time of drug addition, an aliquot of frozen concentrate is thawed and diluted to twice the desired final maximum test concentration with complete medium containing 50 μg/ml gentamicin. Additional four, 10-fold or one-half log serial dilutions are made to provide a total of five drug concentrations plus control. Aliquots of 100 μl of these different drug dilutions are added to the appropriate microtiter wells already containing 100 μl of medium, resulting in the required final drug concentrations. Following drug addition, the plates are incubated for an additional 48 h at 37° C., 5% CO2, 95% air, and 100% relative humidity. For adherent cells, the assay is terminated by the addition of cold TCA. Cells are fixed in situ by the gentle addition of 50 μl of cold 50% (w/v) TCA (final concentration, 10% TCA) and incubated for 60 minutes at 4° C. The supernatant is discarded, and the plates are washed five times with tap water and air dried. Sulforhodamine B (SRB) solution (100 μl) at 0.4% (w/v) in 1% acetic acid is added to each well, and plates are incubated for 10 minutes at room temperature. After staining, unbound dye is removed by washing five times with 1% acetic acid and the plates are air dried. Bound stain is subsequently solubilized with 10 mM trizma base, and the absorbance is read on an automated plate reader at a wavelength of 515 nm. For suspension cells, the methodology is the same except that the assay is terminated by fixing settled cells at the bottom of the wells by gently adding 50 μl of 80% TCA (final concentration, 16% TCA). Using the seven absorbance measurements [time zero, (Tz), control growth, (C), and test growth in the presence of drug at the five concentration levels (Ti)], the percentage growth is calculated at each of the drug concentrations levels. […]

A549/ATCC = experiment: NCI-60 cell line screen (SRB), A549/ATCC; type: cell-based, human
Method: as §1

NCI-H23 = experiment: NCI-60 cell line screen (SRB), NCI-H23; type: cell-based, human
Method: as §1

NCI-H322M = experiment: NCI-60 cell line screen (SRB), NCI-H322M; type: cell-based, human
Method: as §1

[1] = tested on: Non-Small Cell Lung Cancer cell lines; experiment: NCI-60 cell line screen, Non-Small Cell Lung Cancer panel average; type: cell-based, human; details: read-out: GI50 Average
Method: as §1

HCC-2998 = experiment: NCI-60 cell line screen (SRB), HCC-2998; type: cell-based, human
Method: as §1

SF-268 = experiment: NCI-60 cell line screen (SRB), SF-268; type: cell-based, human
Method: as §1

SF-539 = experiment: NCI-60 cell line screen (SRB), SF-539; type: cell-based, human
Method: as §1

SNB-19 = experiment: NCI-60 cell line screen (SRB), SNB-19; type: cell-based, human
Method: as §1

SNB-75 = experiment: NCI-60 cell line screen (SRB), SNB-75; type: cell-based; details: Homo sapiens
Method: as §1, with “temperature.” for “temperature. After staining, unbound dye is removed by washing five times with 1% acetic acid and the plates are air dried. Bound stain is subsequently solubilized with 10 mM trizma base, and the absorbance is read on an automated plate reader at a wavelength of 515 nm. For suspension cells, the methodology is the same except that the assay is terminated by fixing settled cells at the bottom of the wells by gently adding 50 μl of 80% TCA (final concentration, 16% TCA). Using the seven absorbance measurements [time zero, (Tz), control growth, (C), and test growth in the presence of drug at the five concentration levels (Ti)], the percentage growth is calculated at each of the drug concentrations levels.”

CNS Cancer cell lines = experiment: NCI-60 cell line screen, CNS Cancer panel average; type: cell-based, human; details: read-out: GI50 Average
Method: as §1

MALME-3M = experiment: NCI-60 cell line screen (SRB), MALME-3M; type: cell-based, human
Method: as §1

SK-MEL-28 = experiment: NCI-60 cell line screen (SRB), SK-MEL-28; type: cell-based, human
Method: as §1

SK-MEL-5 = experiment: NCI-60 cell line screen (SRB), SK-MEL-5; type: cell-based, human
Method: as §1

UACC-62 = experiment: NCI-60 cell line screen (SRB), UACC-62; type: cell-based, human
Method: as §1

IGROV1 = experiment: NCI-60 cell line screen (SRB), IGROV1; type: cell-based, human
Method: as §1

OVCAR-5 = experiment: NCI-60 cell line screen (SRB), OVCAR-5; type: cell-based, human
Method: as §1

CAKI-1 = experiment: NCI-60 cell line screen (SRB), CAKI-1; type: cell-based, human
Method: as §1

RXF 393 = experiment: NCI-60 cell line screen (SRB), RXF 393; type: cell-based, human
Method: as §1

Renal Cancer cell lines = experiment: NCI-60 cell line screen, Renal Cancer panel average; type: cell-based, human; details: read-out: GI50 Average
Method: as §1

MCF-7 = experiment: NCI-60 cell line screen (SRB), MCF-7; type: cell-based, human
Method: as §1

BT-549 = experiment: NCI-60 cell line screen (SRB), BT-549; type: cell-based, human
Method: as §1

T-47D = experiment: NCI-60 cell line screen (SRB), T-47D; type: cell-based, human
Method: as §1

CC1(C)CC(NC(=O)[C@H](Cc2ccc(OCc3c(Cl)cccc3Cl)cc2)NC(=O)c2ccc(OCCC[Si](C)(C)C)cc2)CC(C)(C)N1 [GH1501, N^α-{4-[3-(trimethylsilyl)propoxy]-benzoyl}-N-(2,2,6,6-tetramethylpiperidin-4-yl)-[O-(2,6-dichlorobenzyl)-L-tyrosinamide]]
GI50 (MOLT-4; Homo sapiens, MOLT-4, 48 h): 353 nM | GI50 (A549/ATCC; Homo sapiens, A549, 48 h): 407 nM | GI50 (NCI-H23; Homo sapiens, NCI-H23, 48 h): 1650 nM | GI50 (NCI-H322M; Homo sapiens, 48 h): 1740 nM | GI50 ([1]; Homo sapiens): 1330 nM | GI50 (HCC-2998; Homo sapiens, HCC 2998, 48 h): 1050 nM | GI50 (SF-268; Homo sapiens, SF-268, 48 h): 903 nM | GI50 (SF-539; Homo sapiens, SF-539, 48 h): 1770 nM | GI50 (SNB-19; Homo sapiens, SNB-19, 48 h): 1720 nM | GI50 (SNB-75; SNB-75, 48 h): 1340 nM | GI50 (CNS Cancer cell lines; Homo sapiens): 1190 nM | GI50 (MALME-3M; Homo sapiens, Malme-3M, 48 h): 1460 nM | GI50 (SK-MEL-28; Homo sapiens, SK-MEL-28, 48 h): 1500 nM | GI50 (SK-MEL-5; Homo sapiens, SK-MEL-5, 48 h): 1720 nM | GI50 (UACC-62; Homo sapiens, UACC-62, 48 h): 1490 nM | GI50 (IGROV1; Homo sapiens, IGROV-1, 48 h): 1200 nM | GI50 (OVCAR-5; Homo sapiens, OVCAR-5, 48 h): 1680 nM | GI50 (CAKI-1; Homo sapiens, CAKI-1, 48 h): 1360 nM | GI50 (RXF 393; Homo sapiens, RXF 393, 48 h): 1510 nM | GI50 (Renal Cancer cell lines; Homo sapiens): 1280 nM | GI50 (MCF-7; Homo sapiens, MCF7, 48 h): 335 nM | GI50 (BT-549; Homo sapiens, BT-549, 48 h): 2010 nM | GI50 (T-47D; Homo sapiens, T47D, 48 h): 1900 nM

CCCC[Si](C)(C)COc1ccc(C(=O)N[C@@H](Cc2ccc(OCc3c(Cl)cccc3Cl)cc2)C(=O)NC2CC(C)(C)NC(C)(C)C2)cc1 [GH1503, N^α-{4-[(butyldimethylsilyl)methoxy]-benzoyl}-N-(2,2,6,6-tetramethylpiperidin-4-yl)-[O-(2,6-dichlorobenzyl)-L-tyrosinamide]]
GI50 (MOLT-4; Homo sapiens, Leukemia, MOLT-4, 48 h drug incubation, read-out: GI50): 315 nM | GI50 (A549/ATCC; Homo sapiens, Non-Small Cell Lung Cancer, A549/ATCC, 48 h drug incubation, read-out: GI50): 332 nM | GI50 (NCI-H23; Homo sapiens, Non-Small Cell Lung Cancer, NCI-H23, 48 h drug incubation, read-out: GI50): 1560 nM | GI50 (NCI-H322M; Homo sapiens, Non-Small Cell Lung Cancer, 48 h drug incubation, read-out: GI50): 1570 nM | GI50 ([1]; Homo sapiens, average over Non-Small Cell Lung Cancer panel): 1210 nM | GI50 (HCC-2998; Homo sapiens, Colon Cancer, HCC-2998, 48 h drug incubation, read-out: GI50): 1070 nM | GI50 (SF-268; Homo sapiens, CNS Cancer, SF-268, 48 h drug incubation, read-out: GI50): 611 nM | GI50 (SF-539; Homo sapiens, CNS Cancer, SF-539, 48 h drug incubation, read-out: GI50): 1730 nM | GI50 (SNB-19; Homo sapiens, CNS Cancer, SNB-19, 48 h drug incubation, read-out: GI50): 1600 nM | GI50 (SNB-75; CNS Cancer, SNB-75, 48 h drug incubation, read-out: GI50): 1350 nM | GI50 (CNS Cancer cell lines; Homo sapiens, average over CNS Cancer panel): 1100 nM | GI50 (MALME-3M; Homo sapiens, Melanoma, MALME-3M, 48 h drug incubation, read-out: GI50): 1200 nM | GI50 (SK-MEL-28; Homo sapiens, Melanoma, SK-MEL-28, 48 h drug incubation, read-out: GI50): 1580 nM | GI50 (SK-MEL-5; Homo sapiens, Melanoma, SK-MEL-5, 48 h drug incubation, read-out: GI50): 1680 nM | GI50 (UACC-62; Homo sapiens, Melanoma, UACC-62, 48 h drug incubation, read-out: GI50): 1500 nM | GI50 (IGROV1; Homo sapiens, IGROV-1, Ovarian Cancer, IGROV1, 48 h drug incubation, read-out: GI50): 704 nM | GI50 (OVCAR-5; Homo sapiens, Ovarian Cancer, OVCAR-5, 48 h drug incubation, read-out: GI50): 1620 nM | GI50 (CAKI-1; Homo sapiens, Renal Cancer, CAKI-1, 48 h drug incubation, read-out: GI50): 1080 nM | GI50 (RXF 393; Homo sapiens, Renal Cancer, RXF 393, 48 h drug incubation, read-out: GI50): 392 nM | GI50 (Renal Cancer cell lines; Homo sapiens, average over Renal Cancer panel): 1050 nM | GI50 (MCF-7; Homo sapiens, MCF7, Breast Cancer, MCF-7, 48 h drug incubation, read-out: GI50): 356 nM | GI50 (BT-549; Homo sapiens, Breast Cancer, BT-549, 48 h drug incubation, read-out: GI50): 2110 nM | GI50 (T-47D; Homo sapiens, T47D, Breast Cancer, T-47D, 48 h drug incubation, read-out: GI50): 1840 nM

CCOP(=O)(OCC)C(NC(=O)[C@H](Cc1ccc(-c2ccccc2)cc1)NC(=O)c1ccc(OCCC[Si](C)(C)C)cc1)P(=O)(OCC)OCC [GH1505, N^α-{4-[3-(trimethylsilyl)propoxy]-benzoyl}-N-[bis(dietoxyphosphoryl)methyl]-(4-phenyl-L-phenylalaninamide)]
GI50 (MOLT-4; Leukemia, MOLT-4, 48 h drug incubation, read-out: GI50): 2860 nM | GI50 (A549/ATCC; Non-Small Cell Lung Cancer, A549/ATCC, 48 h drug incubation, read-out: GI50): 2840 nM | GI50 (NCI-H23; Non-Small Cell Lung Cancer, NCI-H23, 48 h drug incubation, read-out: GI50): 3050 nM | GI50 (NCI-H322M; Non-Small Cell Lung Cancer, 48 h drug incubation, read-out: GI50): 5110 nM | GI50 ([1]; average over Non-Small Cell Lung Cancer panel): 2620 nM | GI50 (HCC-2998; Colon Cancer, HCC-2998, 48 h drug incubation, read-out: GI50): 2020 nM | GI50 (SF-268; CNS Cancer, SF-268, 48 h drug incubation, read-out: GI50): 2070 nM | GI50 (SF-539; CNS Cancer, SF-539, 48 h drug incubation, read-out: GI50): 1820 nM | GI50 (SNB-19; CNS Cancer, SNB-19, 48 h drug incubation, read-out: GI50): 2060 nM | GI50 (CNS Cancer cell lines; average over CNS Cancer panel): 2010 nM | GI50 (MALME-3M; Melanoma, MALME-3M, 48 h drug incubation, read-out: GI50): 1930 nM | GI50 (SK-MEL-28; Melanoma, SK-MEL-28, 48 h drug incubation, read-out: GI50): 1760 nM | GI50 (SK-MEL-5; Melanoma, SK-MEL-5, 48 h drug incubation, read-out: GI50): 1580 nM | GI50 (UACC-62; Melanoma, UACC-62, 48 h drug incubation, read-out: GI50): 1620 nM | GI50 (IGROV1; Ovarian Cancer, IGROV1, 48 h drug incubation, read-out: GI50): 3220 nM | GI50 (OVCAR-5; Ovarian Cancer, OVCAR-5, 48 h drug incubation, read-out: GI50): 1710 nM | GI50 (CAKI-1; Renal Cancer, CAKI-1, 48 h drug incubation, read-out: GI50): 2900 nM | GI50 (RXF 393; Renal Cancer, RXF 393, 48 h drug incubation, read-out: GI50): 1870 nM | GI50 (Renal Cancer cell lines; average over Renal Cancer panel): 2550 nM | GI50 (MCF-7; Breast Cancer, MCF-7, 48 h drug incubation, read-out: GI50): 1880 nM | GI50 (BT-549; Breast Cancer, BT-549, 48 h drug incubation, read-out: GI50): 2090 nM | GI50 (T-47D; Breast Cancer, T-47D, 48 h drug incubation, read-out: GI50): 3100 nM
